Consider 31 molecules from patent publication US20100041892A1, “Therapeutic agent for diabetes” (priority 2005, published 2010).

Structures can show the parent of a compound that is named as a salt.

With `CCCS(=O)(=O)NC(=O)CCc1cc(OC(C)C)nn1Cc1ccc(Cl)cc1Cl` [Example 85, 3-[1-(2,4-dichlorobenzyl)-3-isopropoxy-1H-pyrazol-5-yl]-N-(propylsulfonyl)propanamide], the melting point is 124 to 126 °C.

`COCCOc1ccc(CCC(=O)NS(=O)(=O)CCC(C)C)c(Oc2ncc(C(F)(F)F)cc2Cl)c1` [Example 43, 3-[2-{[3-chloro-5-(trifluoromethyl)pyridin-2-yl]oxy}-4-(2-methoxyethoxy)phenyl]-N-[(3-methylbutyl)sulfonyl]propanamide]: the melting point fell in the range of 130 to 132 °C.

The molecule `COCCOc1ccc(/C=C(\C)C(=O)NS(=O)(=O)c2ccc(Cl)cc2)c(Oc2ncc(C(F)(F)F)cc2Cl)c1` [Example 230, (2E)-N-[(4-chlorophenyl)sulfonyl]-3-[2-{[3-chloro-5-(trifluoromethyl)pyridin-2-yl]oxy}-4-(2-methoxyethoxy)phenyl]-2-methylacrylamide] yielded a melting point of 145.7 to 145.8 °C.

`CCCCCS(=O)(=O)NC(=O)/C(=C/c1ccc(OCCOC)cc1Oc1ncc(Cl)cc1Cl)CC` [Example 188, (2E)-2-[2-[(3,5-dichloropyridin-2-yl)oxy]-4-(2-methoxyethoxy)benzylidene]-N-(pentylsulfonyl)butanamide] yielded a melting point of 118 to 118.4 °C.

As to `CCCCCNS(=O)(=O)NC(=O)/C=C/c1ccc(OCCOC)cc1Oc1ncc(C(F)(F)F)cc1Cl` [Example 215, (2E)-3-[2-{[3-chloro-5-(trifluoromethyl)pyridin-2-yl]oxy}-4-(2-methoxyethoxy)phenyl]-N-[(pentylamino)sulfonyl]acrylamide], the melting point lay within 120 to 122 °C.

`CC(C)CCS(=O)(=O)NC(=O)/C=C/c1cc(C2CC2)nn1Cc1ccc(C(F)(F)F)cc1Cl` [Example 118, (2E)-3-{1-[2-chloro-4-(trifluoromethyl)benzyl]-3-cyclopropyl-1H-pyrazol-5-yl}-N-[(3-methylbutyl)sulfonyl]acrylamide] displayed a melting point of 145 to 147 °C.

`CCCCOc1cc(CCS(=O)(=O)NC(=O)OCC(C)C)n(Cc2ccc(Cl)cc2Cl)n1` [Example 133, isobutyl ({2-[3-butoxy-1-(2,4-dichlorobenzyl)-1H-pyrazol-5-yl]ethyl}sulfonyl)carbamate]: the melting point lay within 114 to 116 °C.

For `CCCCCS(=O)(=O)NC(=O)/C=C/c1ccc(C)n1Cc1ccc(Cl)cc1Cl` [Example 457, (2E)-3-[1-(2,4-dichlorobenzyl)-5-methyl-1H-pyrrol-2-yl]-N-(pentylsulfonyl)acrylamide], the melting point lay in the range of 189 to 190 °C.

In turn, `CC(C)CCS(=O)(=O)NC(=O)CCc1cc(C2CC2)nn1Cc1ccc(C(F)(F)F)cc1Cl` [Example 157, 3-{1-[2-chloro-4-(trifluoromethyl)benzyl]-3-cyclopropyl-1H-pyrazol-5-yl}-N-[(3-methylbutyl)sulfonyl]propanamide] came in with a melting point of 160.5 to 162.5 °C.

Turning to `CC(C)CCS(=O)(=O)NC(=O)CCc1cc(OC(C)C)nn1Cc1ccc(Cl)cc1Cl` [Example 92, 3-[1-(2,4-dichlorobenzyl)-3-isopropoxy-1H-pyrazol-5-yl]-N-[(3-methylbutyl)sulfonyl]propanamide], the melting point lay within 143 to 145 °C.

As for `CCCCCC(=O)NS(=O)(=O)CCc1cc(OC(C)C)nn1Cc1ccc(Cl)cc1Cl` [Example 126, N-({2-[1-(2,4-dichlorobenzyl)-3-isopropoxy-1H-pyrazol-5-yl]ethyl}sulfonyl)hexanamide], the melting point lay within 107 to 108 °C.

Regarding `CCCCCS(=O)(=O)NC(=O)/C=C/c1ccc(OCCOC)cc1Oc1ncc(NC(C)=O)cc1C` [Example 463, (2E)-3-[2-{[5-(acetylamino)-3-methylpyridin-2-yl]oxy}-4-(2-methoxyethoxy)phenyl]-N-(pentylsulfonyl)acrylamide], the melting point fell in the range of 187.9 to 188.2 °C.

For `CCCCCC(=O)NS(=O)(=O)/C=C/c1cc(OCCCC)nn1Cc1ccc(Cl)cc1Cl` [Example 131, N-({(E)-2-[3-butoxy-1-(2,4-dichlorobenzyl)-1H-pyrazol-5-yl]vinyl}sulfonyl)hexanamide], the melting point lay in the range of 117 to 119 °C.

Molecule `COCCOc1ccc(/C=C/COC(=O)NS(=O)(=O)NCCc2ccccc2)c(Oc2ncc(C(F)(F)F)cc2Cl)c1` [Example 435, (2E)-3-[2-{[3-chloro-5-(trifluoromethyl)pyridin-2-yl]oxy}-4-(2-methoxyethoxy)phenyl]prop-2-en-1-yl {[(2-phenylethyl)amino]sulfonyl}carbamate] yielded a melting point of 113 to 114 °C.

Take `COCCOc1ccc(CCCNS(=O)(=O)CCCc2ccccc2)c(Oc2ncc(C(F)(F)F)cc2Cl)c1` [Example 21, N-{3-[2-{[3-chloro-5-(trifluoromethyl)pyridin-2-yl]oxy}-4-(2-methoxyethoxy)phenyl]propyl}-3-phenylpropane-1-sulfonamide]: the melting point fell in the range of 101.8 to 102 °C.

The molecule `CCCCCS(=O)(=O)NC(=O)OCc1ccc(OC(C)C)cc1Oc1ncc(C(F)(F)F)cc1Cl` [Example 63, 2-{[3-chloro-5-(trifluoromethyl)pyridin-2-yl]oxy}-4-isopropoxybenzyl (pentylsulfonyl)carbamate] showed a melting point of 70 to 73 °C.

Molecule `CCCCCS(=O)(=O)NC(=O)/C=C/c1ccc(OCCOC)cc1Oc1cc(C(F)(F)F)ccc1[N+](=O)[O-]` [Example 174, (2E)-3-{4-(2-methoxyethoxy)-2-[2-nitro-5-(trifluoromethyl)phenoxy]phenyl}-N-(pentylsulfonyl)acrylamide] showed a melting point of 164.5 to 165.2 °C.

Molecule `COCCCS(=O)(=O)NC(=O)CC(C)c1ccc(OCCOC)cc1Oc1ncc(C(F)(F)F)cc1Cl` (stereo not shown) [Example 78, 3-[2-{[3-chloro-5-(trifluoromethyl)pyridin-2-yl]oxy}-4-(2-methoxyethoxy)phenyl]-N-[(3-methoxypropyl)sulfonyl]butanamide] returned a melting point of 107 to 109 °C.

`COCCCNC(=O)OCCCc1ccc(OCCOC)cc1Oc1ncc(C(F)(F)F)cc1Cl` [Example 55, 3-[2-{[3-chloro-5-(trifluoromethyl)pyridin-2-yl]oxy}-4-(2-methoxyethoxy)phenyl]propyl (3-methoxypropyl)carbamate] showed a melting point of 83.5 to 85 °C.

As to `CCCCCS(=O)(=O)NC(=O)/C=C/c1cc(OCCOC)nn1Cc1ccc(Cl)cc1Cl` [Example 109, (2E)-3-[1-(2,4-dichlorobenzyl)-3-(2-methoxyethoxy)-1H-pyrazol-5-yl]-N-(pentylsulfonyl)acrylamide], the melting point was in the range of 82 to 85 °C.

`COCCOc1ccc(CCCOC(=O)NS(N)(=O)=O)c(Oc2ncc(Cl)cc2Cl)c1` [Example 426, 3-[2-[(3,5-dichloropyridin-2-yl)oxy]-4-(2-methoxyethoxy)phenyl]propyl (aminosulfonyl)carbamate]: the melting point is 153.2 to 153.8 °C.

In turn, `CCCCCCS(=O)(=O)NC(=O)CCc1cc(OC(C)C)nn1Cc1ccc(Cl)cc1Cl` [Example 87, 3-[1-(2,4-dichlorobenzyl)-3-isopropoxy-1H-pyrazol-5-yl]-N-(hexylsulfonyl)propanamide] displayed a melting point of 103 to 106 °C.

On to `CCCCOc1cc(/C=C/S(=O)(=O)NC(=O)OC(C)(C)C)n(Cc2ccc(Cl)cc2Cl)n1` [Example 127, tert-butyl ({(E)-2-[3-butoxy-1-(2,4-dichlorobenzyl)-1H-pyrazol-5-yl]vinyl}sulfonyl)carbamate], for which the melting point is 152 to 153 °C.

As for `C=CCOC(=O)NS(=O)(=O)CCc1cc(OCCCC)nn1Cc1ccc(Cl)cc1Cl` [Example 137, allyl ({2-[3-butoxy-1-(2,4-dichlorobenzyl)-1H-pyrazol-5-yl]ethyl}sulfonyl)carbamate], the melting point was in the range of 94 to 95 °C.

`CCCCCS(=O)(=O)NC(=O)/C=C/c1ccc(OCC(C)(C)O)cc1Oc1ncc(C(F)(F)F)cc1Cl` (as salt: acetate) (hydrate or solvate) [Example 250, (2E)-3-[2-{[3-chloro-5-(trifluoromethyl)pyridin-2-yl]oxy}-4-(2-hydroxy-2-methylpropoxy)phenyl]-N-(pentylsulfonyl)acrylamide] returned a melting point of 98 to 100 °C.

For `COCCOc1ccc(/C=C/COC(=O)NS(=O)(=O)c2ccc(Cl)cc2)c(Oc2ncc(C(F)(F)F)cc2Cl)c1.O.O` (hydrate or solvate) [Example 37, (2E)-3-[2-{[3-chloro-5-(trifluoromethyl)pyridin-2-yl]oxy}-4-(2-methoxyethoxy)phenyl]-2-propen-1-yl [(4-chlorophenyl)sulfonyl]carbamate dihydrate], the melting point is 174.5 °C (dec.).

`COCCOc1ccc(CCCNS(=O)(=O)c2cccc(Cl)c2)c(Oc2ncc(C(F)(F)F)cc2Cl)c1` [Example 24, 3-chloro-N-{3-[2-{[3-chloro-5-(trifluoromethyl)pyridin-2-yl]oxy}-4-(2-methoxyethoxy)phenyl]propyl}benzenesulfonamide] yielded a melting point of 110 to 114 °C.

As to `COCCOc1ccc(CCCOC(=O)N2CCOCC2)c(Oc2ncc(C(F)(F)F)cc2Cl)c1` [Example 48, 3-[2-{[3-chloro-5-(trifluoromethyl)pyridin-2-yl]oxy}-4-(2-methoxyethoxy)phenyl]propyl morpholine-4-carboxylate], the melting point was in the range of 82.3 to 82.4 °C.

In the case of `COCCCS(=O)(=O)NC(=O)CCc1cc(OCC2CC2)nn1Cc1ccc(C(F)(F)F)cc1Cl` [Example 120, 3-[1-[2-chloro-4-(trifluoromethyl)benzyl]-3-(cyclopropylmethoxy)-1H-pyrazol-5-yl]-N-[(3-methoxypropyl)sulfonyl]propanamide], the melting point fell in the range of 152 to 154 °C.

With `COCCOc1ccc(/C=C/C(=O)NS(=O)(=O)c2cccc(Cl)c2)c(Oc2ncc(C(F)(F)F)cc2Cl)c1` [Example 232, (2E)-N-[(3-chlorophenyl)sulfonyl]-3-[2-{[3-chloro-5-(trifluoromethyl)pyridin-2-yl]oxy}-4-(2-methoxyethoxy)phenyl]acrylamide], the melting point lay within 157 to 158 °C.

With `C=CCCOc1ccc(CCCOC(=O)NS(=O)(=O)NCCOC(C)C)c(Oc2ncc(C(F)(F)F)cc2Cl)c1` [Example 475, 3-(4-(but-3-en-1-yloxy)-2-{[3-chloro-5-(trifluoromethyl)pyridin-2-yl]oxy}phenyl)propyl {[(2-isopropoxyethyl)amino]sulfonyl}carbamate], the melting point is 111.1 to 113 °C.
